According to US10722501B2 (BAYER AKTIENGESELLSCHAFT, priority 2016, dated 2020):

molecular target: T1, recombinant full-length human prolyl endopeptidase (PREP) (Homo sapiens, UniProt P48147); test: Biochemical human prolyl endopeptidase (PREP) assay with fluorescently labelled substrate; details: substrate Z-Gly-Pro-AMC 50 μM, 32° C., 60 min; some as mean values from multiple independent determinations
T1 construct: To recombinant full-length human prolyl endopeptidase (PREP, R&D-Systems, 4308-SE); purchased R&D-Systems 4308-SE
T1 sequence (P48147 1-710): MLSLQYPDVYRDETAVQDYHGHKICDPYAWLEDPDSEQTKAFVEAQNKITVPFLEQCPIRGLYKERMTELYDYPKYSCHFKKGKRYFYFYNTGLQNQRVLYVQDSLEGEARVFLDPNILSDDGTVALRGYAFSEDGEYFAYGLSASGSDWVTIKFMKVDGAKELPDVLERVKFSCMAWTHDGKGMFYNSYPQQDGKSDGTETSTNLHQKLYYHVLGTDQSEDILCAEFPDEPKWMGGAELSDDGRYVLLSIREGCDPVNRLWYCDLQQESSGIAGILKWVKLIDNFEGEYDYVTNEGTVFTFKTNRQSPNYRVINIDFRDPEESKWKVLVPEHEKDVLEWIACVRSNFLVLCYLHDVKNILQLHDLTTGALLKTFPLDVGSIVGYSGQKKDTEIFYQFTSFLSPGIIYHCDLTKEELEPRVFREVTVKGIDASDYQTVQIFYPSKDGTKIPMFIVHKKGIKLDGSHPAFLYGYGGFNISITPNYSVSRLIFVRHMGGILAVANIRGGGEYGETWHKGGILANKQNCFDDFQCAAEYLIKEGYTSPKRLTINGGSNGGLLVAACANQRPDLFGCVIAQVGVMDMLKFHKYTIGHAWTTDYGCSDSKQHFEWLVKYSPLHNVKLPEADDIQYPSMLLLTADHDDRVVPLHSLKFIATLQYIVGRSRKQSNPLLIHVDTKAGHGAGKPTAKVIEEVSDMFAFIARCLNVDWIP
Summary of the method: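 0.4 nM (final, example) recombinant PREP in pH 7.5 Tris buffer with EDTA, GSH, BSA and Brij-35; compounds at 1 nM to 30 μM. Reaction started with 50 μM Z-Gly-Pro-AMC and followed by fluorescence (ex 360/em 465 nm) at 32° C for 60 min. IC50 interpolated from percent activity based on initial slopes.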

IC50	SMILES
0.48 nM	CC1Cc2nn(Cc3ccc(F)c(Cl)c3)c(=O)n2C(C(=O)N2CC(F)C2)C1 (racemic) [Example 340, (5RS,7RS)-2-(3-Chloro-4-fluorobenzyl)-5-[(3-fluoroazetidin-1-yl)carbonyl]-7-methyl-5,6,7,8-tetrahydro[1,2,4]triazolo[4,3-a]pyridin-3(2H)-one]
320 nM	O=C([C@@H]1CCCc2nn(/C=C/c3ccc(F)cc3)c(=O)n21)N1CCCC1 [Example 204, (5S)-2-[(E)-2-(4-Fluorophenyl)vinyl]-5-(pyrrolidin-1-ylcarbonyl)-5,6,7,8-tetrahydro[1,2,4]triazolo[4,3-a]pyridin-3(2H)-one]
1 nM	O=C(C1CCCc2nn(Cc3cccc(Cl)c3)c(=O)n21)N1CCCC1 (racemic) [Example 38, (5RS)-2-(3-Chlorobenzyl)-5-(pyrrolidin-1-ylcarbonyl)-5,6,7,8-tetrahydro[1,2,4]triazolo[4,3-a]pyridin-3(2H)-one]
5.2 nM	O=C(C1CC(C(F)(F)F)Cc2nn(Cc3ncc(F)cc3F)c(=O)n21)N1CCC(F)(F)C1 (single isomer, unassigned) [Example 574, (5RS,7RS)-2-[(3,5-Difluoropyridin-2-yl)methyl]-5-[(3,3-difluoropyrrolidin-1-yl)carbonyl]-7-(trifluoromethyl)-5,6,7,8-tetrahydro[1,2,4]triazolo[4,3-a]pyridin-3(2H)-one]
210 nM	O=C(C1CCCc2nn(Cc3noc(-c4cccc(C(F)(F)F)c4)n3)c(=O)n21)N1CCCC1 (racemic) [Example 69, (5RS)-5-(Pyrrolidin-1-ylcarbonyl)-2-({5-[3-(trifluoromethyl)phenyl]-1,2,4-oxadiazol-3-yl}methyl)-5,6,7,8-tetrahydro[1,2,4]triazolo[4,3-a]pyridin-3(2H)-one]
2.6 nM	O=C(C1CC(C(F)(F)F)Cc2nn(Cc3cncc(Cl)c3)c(=O)n21)N1CC[C@H](F)C1 (mixture of isomers) [Example 316, (5RS,7RS)-2-[(5-Chloropyridin-3-yl)methyl]-5-{[(3S)-3-fluoropyrrolidin-1-yl]carbonyl}-7-(trifluoromethyl)-5,6,7,8-tetrahydro[1,2,4]triazolo[4,3-a]pyridin-3(2H)-one]
53 nM	O=C([C@@H]1CCCc2nn(Cc3ccc(C(F)(F)F)nc3)c(=O)n21)N1CC(O)C1 [Example 428, (5S)-5-[(3-Hydroxyazetidin-1-yl)carbonyl]-2-{[6-(trifluoromethyl)pyridin-3-yl]methyl}-5,6,7,8-tetrahydro[1,2,4]triazolo[4,3-a]pyridin-3(2H)-one]
5.55 nM	O=C([C@@H]1CCCc2nn(Cc3ccc(F)c(C(F)(F)F)c3)c(=O)n21)N1CC(O)C1 [Example 449, (5S)-2-[4-Fluoro-3-(trifluoromethyl)benzyl]-5-[(3-hydroxyazetidin-1-yl)carbonyl]-5,6,7,8-tetrahydro[1,2,4]triazolo[4,3-a]pyridin-3(2H)-one]
4.75 nM	O=C([C@@H]1CCCc2nn(Cc3ccnc(C(F)(F)F)c3)c(=O)n21)N1CCCC1 [Example 74, (5S)-5-(Pyrrolidin-1-ylcarbonyl)-2-{[2-(trifluoromethyl)pyridin-4-yl]methyl}-5,6,7,8-tetrahydro[1,2,4]triazolo[4,3-a]pyridin-3(2H)-one]
10.2 nM	Cc1ccc(Cn2nc3n(c2=O)[C@H](C(=O)N2CC[C@@H](O)C2)CCC3)cc1 [Example 122, (5S)-5-{[(3R)-3-Hydroxypyrrolidin-1-yl]carbonyl}-2-(4-methylbenzyl)-5,6,7,8-tetrahydro[1,2,4]triazolo[4,3-a]pyridin-3(2H)-one]
16.5 nM	O=C([C@@H]1CCCc2nn(Cc3cc(C(F)(F)F)nc4ccccc34)c(=O)n21)N1CC(O)C1 [Example 495, (5S)-5-[(3-Hydroxyazetidin-1-yl)carbonyl]-2-{[2-(trifluoromethyl)quinolin-4-yl]methyl}-5,6,7,8-tetrahydro[1,2,4]triazolo[4,3-a]pyridin-3(2H)-one]
4.9 nM	Cc1[nH]cnc1Cn1nc2n(c1=O)C(C(=O)N1CCCC1)CCC2 (racemic) [Example 24, (5RS)-2-[(5-Methyl-1H-imidazol-4-yl)methyl]-5-(pyrrolidin-1-ylcarbonyl)-5,6,7,8-tetrahydro[1,2,4]triazolo[4,3-a]pyridin-3(2H)-one]
30.5 nM	O=C(C1CC(C(F)(F)F)Cc2nn(Cc3ccnc(C(F)(F)F)c3F)c(=O)n21)N1CC(F)C1 (single isomer, unassigned) [Example 254, (5RS,7RS)-5-[(3-Fluoroazetidin-1-yl)carbonyl]-2-{[3-fluoro-2-(trifluoromethyl)pyridin-4-yl]methyl}-7-(trifluoromethyl)-5,6,7,8-tetrahydro[1,2,4]triazolo[4,3-a]pyridin-3(2H)-one]
0.41 nM	O=C([C@@H]1CCCc2nn(Cc3ccc(F)c(F)c3)c(=O)n21)N1CC[C@H](F)C1 [Example 466, (5S)-2-(3,4-Difluorobenzyl)-5-{[(3S)-3-fluoropyrrolidin-1-yl]carbonyl}-5,6,7,8-tetrahydro[1,2,4]triazolo[4,3-a]pyridin-3(2H)-one]
37 nM	Cc1ccc(Cn2nc3n(c2=O)C(C(=O)N2CCCCC2)CCC3)cc1 (racemic) [Example 161, (5RS)-2-(4-Methylbenzyl)-5-(piperidin-1-ylcarbonyl)-5,6,7,8-tetrahydro[1,2,4]triazolo[4,3-a]pyridin-3(2H)-one]
16 nM	O=C(C1CCCc2nn(Cc3ccc(Cl)nc3)c(=O)n21)N1CCC(F)(F)C1 (racemic) [Example 80, (5RS)-2-[(6-Chloropyridin-3-yl)methyl]-5-[(3,3-difluoropyrrolidin-1-yl)carbonyl]-5,6,7,8-tetrahydro[1,2,4]triazolo[4,3-a]pyridin-3(2H)-one]
1.2 nM	CC(c1ccc(C(F)(F)F)nc1)n1nc2n(c1=O)[C@H](C(=O)N1CC[C@H](F)C1)CCC2 (single isomer, unassigned) [Example 217]
7.9 nM	O=C([C@@H]1CCCc2nn(CCc3ncc(C(F)(F)F)cc3Cl)c(=O)n21)N1CCC(F)(F)C1 [Example 343, (5S)-2-{2-[3-Chloro-5-(trifluoromethyl)pyridin-2-yl]ethyl}-5-[(3,3-difluoropyrrolidin-1-yl)carbonyl]-5,6,7,8-tetrahydro[1,2,4]triazolo[4,3-a]pyridin-3(2H)-one]
0.57 nM	O=C([C@@H]1CCCc2nn(Cc3ccc(F)cc3)c(=O)n21)N1CC(F)C1 [Example 546, (5S)-5-[(3-Fluoroazetidin-1-yl)carbonyl]-2-(4-fluorobenzyl)-5,6,7,8-tetrahydro[1,2,4]triazolo[4,3-a]pyridin-3(2H)-one]
1.3 nM	O=C(C1CCCc2nn(Cc3cc(F)c(F)cc3F)c(=O)n21)N1CCCC1 (racemic) [Example 89, (5RS)-5-(Pyrrolidin-1-ylcarbonyl)-2-(2,4,5-trifluorobenzyl)-5,6,7,8-tetrahydro[1,2,4]triazolo[4,3-a]pyridin-3(2H)-one]
0.15 nM	Cc1ccc(Cn2nc3n(c2=O)[C@H](C(=O)N2CCSC2)CCC3)cc1 [Example 108, (5S)-2-(4-Methylbenzyl)-5-(1,3-thiazolidin-3-ylcarbonyl)-5,6,7,8-tetrahydro[1,2,4]triazolo[4,3-a]pyridin-3(2H)-one]
11 nM	O=C(C1CC(C(F)(F)F)Cc2nn(Cc3ccc(Cl)nc3)c(=O)n21)N1CC[C@H](F)C1 (single isomer, unassigned) [Example 244]
180 nM	O=C(C1C(C(F)(F)F)CCc2nn(Cc3ncc(Cl)cc3F)c(=O)n21)N1CCC(F)(F)C1 (racemic) [Example 296, (5RS,6RS)-2-[(5-Chloro-3-fluoropyridin-2-yl)methyl]-5-[(3,3-difluoropyrrolidin-1-yl)carbonyl]-6-(trifluoromethyl)-5,6,7,8-tetrahydro[1,2,4]triazolo[4,3-a]pyridin-3(2H)-one]
3.9 nM	O=C(C1CCCc2nn(Cc3ncc(C(F)(F)F)cc3Cl)c(=O)n21)N1CCCC1 (racemic) [Example 68, (5RS)-2-{[3-Chloro-5-(trifluoromethyl)pyridin-2-yl]methyl}-5-(pyrrolidin-1-ylcarbonyl)-5,6,7,8-tetrahydro[1,2,4]triazolo[4,3-a]pyridin-3(2H)-one]
0.63 nM	CC1CCC(C(=O)N2C[C@@H](F)[C@@H](F)C2)n2c1nn(Cc1ccc(F)c(Cl)c1)c2=O (mixture of isomers) [Example 319, (5RS,8RS)-2-(3-Chloro-4-fluorobenzyl)-5-{[(3R,4S)-3,4-difluoropyrrolidin-1-yl]carbonyl}-8-methyl-5,6,7,8-tetrahydro[1,2,4]triazolo[4,3-a]pyridin-3(2H)-one]
4.8 nM	Cc1nc(C(F)(F)F)c(Cn2nc3n(c2=O)C(C(=O)N2CCCC2)CCC3)s1 (racemic) [Example 77, (5RS)-2-{[2-Methyl-4-(trifluoromethyl)-1,3-thiazol-5-yl]methyl}-5-(pyrrolidin-1-ylcarbonyl)-5,6,7,8-tetrahydro[1,2,4]triazolo[4,3-a]pyridin-3(2H)-one]
